Laboratory results: patent US12178825B2, “Method and compositions for forming a copper-containing complex and uses thereof” (COLD SPRING HARBOR LABORATORY, priority 2017, dated 2024)
Entries after “also recorded” stand apart in the source; their conditions may differ.

Legend:
TX mice = experiment: Tissue and fecal copper levels (ICP-MS, rhodanine staining); type: in vivo, mouse; conditions: TX mice, ICP-MS
Description: C3He-Atp7b^tx-j were obtained from the Jackson laboratory. All animal experiments were performed according to protocols approved by the Institutional Animal Use and Care Committee of Cold Spring Harbor laboratory. Mice were injected intraperitoneally (i.p.) with vehicle, or administered DPM-1001 intraperitoneally or orally at 5 mg/kg once every third day, for over a year. At the end of the study animals were euthanized and tissue samples were removed for biochemical studies.
Tissue samples from wild-type or TX mice treated with saline, DPM-1001 or tetrathiomolybdate was washed three times with PBS containing 1 mM EDTA (to remove nonspecifically bound copper). Then, 215 μl of concentrated nitric acid (BDH Aristar Ultra) was added to each sample and incubated overnight. Samples were boiled at 95° C. for 1 h. and approximately 150 μl of each sample was further diluted in 2 ml 2% nitric acid (made freshly from concentrated nitric acid and Milli-Q water) Samples were analyzed on a Thermo Fisher iCAP Qc ICP mass spectrometer in kinetic energy discrimination (KED) mode against a calibration curve of known copper and phosphorus concentrations, with Ga (20 μg/l, Inorganic Ventures) as an internal standard, Each experiment was carried out twice and each condition was repeated in at least triplicate.
Liver tissues from wild-type and TX mice from untreated and DPM-1001-treated mice were sectioned and stained with H&E or rhodanine. Whole-slide, digitized images of H&E-stained tissue were captured using the Aperio ScanScope XT automated scanning system (Vista, CA). Image J software was used to quantitate rhodanine staining.

MDA-MB-231 cells = experiment: MDA-MB-231 orthotopic xenograft; type: in vivo, SCID-beige mice; conditions: mice with TNBC xenograft, 5 mg/kg intraperitoneally every day
Description: MDA-MB-231 cells (2×10^6) were injected orthotopically into mammary fat pads of SCID-beige mice (Tectonic lab) in 15 μl of a 1:1 mixture with DMEM and growth factor-reduced Matrigel (BD Biosciences). The animals were randomly assigned to three groups to receive saline (control), DPM-1001 (5 mg/kg) or DPM-1003 (5 mg/kg) intraperitoneally everyday once the tumors reached about 200 mm^3. Tumor growth was monitored every third day and volume in mm^3 was measured three times weekly by palpation using the formula: volume=width^2×length/2. Once the tumor volume reached above 500 mm^3 in saline treated mice, the study was terminated. Tumors from all mice were removed for biochemical analysis.

[1] = test system: triple-negative breast cancer (TNBC) cell lines; experiment: MTT cell survival, triple-negative breast cancer cell lines; type: cell-based
Description: (§1) The MTT assay was used to evaluate cell survival in the absence and presence of different compounds. The thiazolyl blue tetrazolium bromide (MTT) was dissolved in phosphate buffered saline (PBS) at a concentration of 5 mg/ml, filtered, and stored at 4° C. About 10,000 cells were seeded into a 96-well plate and cultured in growth medium containing serum. After 24 hours, cells were treated with the indicated concentrations of DPM-1001 or DPM-1003 (0-100 uM) for 2 hrs. Following which 20 μl MTT was added into each well. An ELISA plate reader (Biotek, Winooski, Vermont, USA) was used to measure the optical density at 490 nm.

TNBC cells = experiment: Cellular copper levels by ICP-MS; type: cell-based
Description: TNBC cells (1×10^6) were plated in a 10-cm culture dish in growth medium. About 24 h after seeding cells, they were untreated or treated with DPM-1001 (2 uM) or DPM-1003 (2 uM) for 2 h. Following which, cells were washed three times with PBS. Then, 215 μl of concentrated nitric acid (BDH Aristar Ultra) was added to each sample and incubated overnight. Samples were boiled at 95° C. for 1 h. and approximately 150 μl of each sample was further diluted in 2 ml 2% nitric acid (made freshly from concentrated nitric acid and Milli-Q water). Samples were analyzed on a Thermo Fisher iCAP Qc ICP mass spectrometer in kinetic energy discrimination (KED) mode against a calibration curve of known copper and phosphorus concentrations, with Ga (20 μg/l, Inorganic Ventures) as an internal standard. Each experiment was carried out twice and each condition was repeated in at least triplicate.

[2] = Direct copper-binding assay with radiolabelled copper
Description: Direct binding assays were performed using radiolabelled copper (64 Cu^2+). Varying concentration of radiolabeled copper (0-100 nM) was incubated with DPM-1001 (100 nM). Excess copper was removed by running the samples through a desalting column. The amount of metal bound to the compound was quantitated directly by scintillation counting. For assays with the protein, His-tagged PTP1B (100 nM) was incubated with varying concentrations of Cu-DPM-1001 complex for 60 min in assay buffer (50 mM Hepes, 100 mM NaCl, 0.1% BSA pH 6.5) at 25° C. Protein-bound and free compound were separated by incubating the protein-inhibitor mixture with 50 μl of 50% Ni-NTA beads for 10 min at 25° C. The beads were washed with assay buffer containing 150 mM NaCl and 25 mM Imidazole three times, and the inhibitor bound to protein was determined by scintillation counting. The amount of bead-bound protein was estimated by BCA protein quantification.
Direct binding assays were performed using radiolabelled copper (64 Cu^2+). […] The amount of metal bound to the compound was quantitated directly by scintillation counting. […] The inhibitor bound to protein was determined by scintillation counting. The amount of bead-bound protein was estimated by BCA protein quantification. For protein quantitation the bead bound protein was precipitated with TCA (25% final) on ice for 30 minutes. […]

[3] = ESI-MS analysis of complex formation with a series of other metal ions; type: binding; conditions: panel of metals
Description: Eight equivalents of M(NO3)2·xH2O or MSO4·xH2O were reacted with 1 eq. of DPM-1001, DPM-1003 or analog 2 (1 mM in H2O). The reaction solutions were stirred at RT, 40° C. and 80° C. for 2 h. Each sample was diluted 5-fold in 50% methanol, 0.1% formic acid and loaded into a 500 μL syringe. A Thermo Vantage triple quadrupole mass spectrometer (Thermo Scientific), equipped with an HESI spray source was coupled to an Accela HPLC system (Thermo Scientific). Mobile phase A consisted of 0.1% formic acid and mobile phase B consisted of 0.1% formic acid in methanol. Isocratic flow was set to 50% B at 200 μL/min. 200 μl samples were injected into the LC flow line via syringe pump at 10 μL/min and electrosprayed into the Vantage triple quadrupole mass spectrometer. A spray voltage of 4.3 kV was used along with a capillary temperature of 350° C. Each full MS scan was 0.5 s and data were collected with a scan range of 200 m/z to 900 m/z over 1 min.

PTP1B = PTP1B (Homo sapiens, UniProt P18031); experiment: PTP1B inhibition (Ki); type: biochemical
non-TNBC cell lines = experiment: MTT cell survival, non-TNBC cell lines; type: cell-based
Description: as §1

Chain of PTP1B (P18031 whole entry, species assumed): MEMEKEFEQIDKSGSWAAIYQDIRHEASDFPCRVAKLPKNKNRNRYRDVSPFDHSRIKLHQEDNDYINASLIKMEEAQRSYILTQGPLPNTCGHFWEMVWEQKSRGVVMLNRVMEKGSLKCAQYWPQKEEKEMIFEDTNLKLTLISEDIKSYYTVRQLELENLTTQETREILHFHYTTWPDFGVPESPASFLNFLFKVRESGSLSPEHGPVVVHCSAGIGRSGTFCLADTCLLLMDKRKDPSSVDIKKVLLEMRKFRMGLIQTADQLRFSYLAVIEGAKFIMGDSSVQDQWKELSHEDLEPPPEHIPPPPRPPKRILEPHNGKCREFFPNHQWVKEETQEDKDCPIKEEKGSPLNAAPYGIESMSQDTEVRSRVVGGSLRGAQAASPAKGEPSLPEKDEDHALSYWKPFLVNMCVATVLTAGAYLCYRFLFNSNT

Q: What does the source list for `COC(=O)CCC(C)C1CCC2C3C(O)CC4CC(NCCCCNCc5cccnc5)CCC4(C)C3CCC12C` (centres unmarked) [DPM-1003]?
A: copper levels in liver and brain (TX mice): did not affect levels of copper in liver tissue; also recorded: did not suppress the levels of the metal in liver; tumor volume / tumor size (MDA-MB-231 cells): without effect; also recorded: not by DPM-1003; also recorded: did not reduce tumor size or inhibit tumor growth; survival of triple-negative breast cancer cells [1]: did not affect survival; also recorded: does not inhibit the survival; cellular copper levels (TNBC cells): does not reduce copper levels; binding to copper (in words) [2]: does not bind copper with high affinity; also recorded: limited binding; also recorded: does not bind with high affinity to or form a complex with copper; complex formation with other metals [3]: limited binding; Ki (PTP1B): 2000 nM; survival of non-TNBC cell lines, DPM-1001 versus DPM-1003 (non-TNBC cell lines): did not differ from each other
